According to article PMC4380168 (Bioorganic & medicinal chemistry, 2015):
pEC50, pIC50: −log10 of the molar value. Where two headings read alike, the source gives them in different places.

Legend:
SK-OV-3 (ovarian cancer) = test: Cytotoxicity against SK-OV-3 ovarian carcinoma cell line; assay type: cell-based, human
[1] = system: MRC-5 (human lung fibroblast); test: Cytotoxicity against MRC-5 cell line; assay type: cell-based; settings: read-out: MRC-5 EC50 (human lung fibroblast); triplicates
A549 (lung cancer) = test: Cytotoxicity against A549 lung carcinoma cell line; assay type: cell-based, human
[2] = ref [7]; cited from earlier work
[3] = system: MDA-MB-231 (breast cancer); test: Cytotoxicity against MDA-MB-231 breast carcinoma cell line; assay type: cell-based; settings: Homo sapiens
MRC-5 = settings: read-out: MRC-5 IC50; cytotoxicity against human eukaryotic cell lines; ref [5],[4b]; cited from earlier work
[4] = Cytotoxicity against MRC-5 cell line; assay type: cell-based, human; settings: human, MRC-5 cells (human lung fibroblast, embryonic cell line)
[5] = system: polio-infected HeLa cells; settings: at 10^−7 M; ref [5],[4b]; cited from earlier work
P.f. K1 = settings: read-out: P.f. K1 IC50; antiprotozoal; ref [5],[4b]; cited from earlier work

Molecule: CC(=O)c1cccc(N[C@H]2[C@H](N)[C@]3(NC(=O)O[C@H]3C)[C@@](C)(O)[C@@]2(O)CO)c1 [Compound 21, De-6-MSA pactamycate]
- pEC50 (SK-OV-3 (ovarian cancer); read-out: SK-OV-3 EC50 (ovarian cancer), triplicates): 5.42
- pEC50 [1]: 5.53
- pEC50 (A549 (lung cancer); read-out: A549 EC50 (lung cancer), triplicates): 5.22

Molecule: CC[C@]1(NC(=O)N(C)C)[C@@H](N)[C@H](Nc2cccc(C(C)=O)c2)[C@](O)(COC(=O)c2c(C)cccc2O)[C@]1(C)O [Compound 2, 7-Deoxypactamycin]
- antiprotozoal activity relative to 1 [2]: increased antiprotozoal activity relative to 1

Molecule: CC(=O)c1cccc(N[C@H]2[C@H](N)[C@@](NC(=O)N(C)C)([C@H](C)O)[C@@](C)(O)[C@@]2(O)COC(=O)c2c(C)cccc2O)c1 [Compound 1, pactamycin]
- pEC50 ([3]; MDA-MB-231, read-out: MDA-MB-231 EC50): 6.91
- pEC50 ([3]; MDA-MB-231, read-out: MDA-MB-231 EC50 (breast cancer)): 6.91
- pIC50 (MRC-5): 7.02
- pEC50 (SK-OV-3 (ovarian cancer); Homo sapiens, SK-OV-3, read-out: SK-OV-3 EC50 (ovarian cancer)): 6.89
- pEC50 [4]: 7.28
- pEC50 (A549 (lung cancer); Homo sapiens, A549, read-out: A549 EC50): 6.80
- pEC50 (A549 (lung cancer); Homo sapiens, A549, read-out: A549 EC50 (lung cancer)): 6.80
- inhibition of polio-infected HeLa cells [5]: complete inhibition
- pIC50 (P.f. K1): 7.85

Molecule: jogyamycin [Compound 3]
- antiprotozoal activity relative to 1 [2]: increased antiprotozoal activity relative to 1
